From US20030022253A1, “Method for identifying, isolating and producing neuroactive binding agents and binding agents derived thereby” (Nyxis Neurotherapies, Inc., priority 2001, published 2003)
Read-outs that look alike come from different tables or passages of the source.

Key:
[1] = target: NMDA receptor-ion channel complex; assay: [3H]TCP binding assay on washed hippocampal membranes; set-up: species or system rat
Experimental: (§1) Tissue Preparation. Crude synaptic membranes were prepared from rat Hippocampi or from rat forebrains (male Sprague-Dawley rats) and washed extensively to remove endogenous amino acids, as previously described by Ransom and Stec ((1988) Brain Res. 444, 25-32). […] Membranes were then pelleted by centrifugation at 48,000 g for 20 min. This step was repeated twice and the homogenate was stored at −70′ in the same buffer. Before each use, homogenates were thawed at room temperature, pelleted, and washed four additional times. […] The final washed membranes were resuspended at concentrations of 2-3 mg/ml in either 5 mM Tris-HCl buffer or 5 mM Tris-acetate buffer.
(§2) TCP binding assay. Measurements of specific [^3H]TCP binding were performed as described previously (Haring R., Kloog Y., Harshak-Felixbrodt N., and Sokolovsky M. (1987) Biochem. Biophys. Res. Commun. 142, 501-510). Final reaction of mixtures consisted of 50-100 μg of membrane protein in 200 μl of 5 mM Tris-HCl buffer and contained either [^3H]TCP, or [^3H]TCP and the appropriate concentration of NMDA-receptor ligands or MAbs. Reactions were initiated by the addition of the membranes to the reaction mixtures. Unless otherwise indicated, binding assays were performed under nonequilibrium conditions at 25° C. for 1 hr. Nonspecific binding was determined in parallel samples containing 100 μM unlabeled PCP. Binding reactions were terminated by filtration on Whatman GF/B glass filters that had been pretreated with 0.1% polyethyleneimine for 1 hr. The dissociation of [^3H]TCP from its membrane-binding site was measured after equilibrating the receptors with 20 nM [^3H]TCP for 120 min. The dissociation reaction was initiated by the addition of 100 μM unlabeled PCP in the presence and absence of NMDA-receptor ligands or MAb. Reactions were terminated immediately (zero time) and after incubation for the additional periods of time indicated.

[2] = target: T1, NMDA receptor-ion channel complex; assay: as above; set-up: species or system rat; conditions: antagonist alone, no glutamate or glycine added; read-out: IC50, inhibition of [3H]TCP binding
T1 construct: other: antagonist alone, no glutamate or glycine added; other: combined addition, 50 μM of each
Experimental: as §1, §2

[3] = target: T2, NMDA receptor-ion channel complex (Rattus norvegicus, UniProt P35439); assay: as above
T2 construct: other: in the presence of 25 μM of B6B21; other: agonist alone
Experimental: as §1, §2

[4] = target: T3, glycine-binding site of the NMDA-receptor complex (Rattus norvegicus, UniProt P35439); assay: [3H]glycine binding assay; conditions: Scatchard analysis, no antibody
T3 construct: Crude synaptic membranes were prepared from rat Hippocampi or from rat forebrains (male Sprague-Dawley rats); from tissue; host or cells: rat hippocampal or forebrain crude synaptic membranes (male Sprague-Dawley), Triton X-100 treated
Experimental: as §1

NMDA receptor complex = target: T4, NMDA receptor complex (Rattus norvegicus, UniProt P35439); assay: Modified glycine site-dependent [3H]MK-801 binding assay with 7-chlorokynurenic acid; conditions: at 10^−6 M
T4 construct: Crude synaptic membranes were prepared using rat hippocampal tissue (male Sprague-Dawley rats); from tissue; host or cells: rat hippocampal crude synaptic membranes (male Sprague-Dawley)

learning [5] = conditions: rats, IV doses up to 2 mg/kg; cited from earlier work
learning [6] = conditions: rats, IV doses up to 2 mg/kg; cited from earlier work; remark: listed apart in the source

T2 sequence (Q00959 23-1464, other chains not shown): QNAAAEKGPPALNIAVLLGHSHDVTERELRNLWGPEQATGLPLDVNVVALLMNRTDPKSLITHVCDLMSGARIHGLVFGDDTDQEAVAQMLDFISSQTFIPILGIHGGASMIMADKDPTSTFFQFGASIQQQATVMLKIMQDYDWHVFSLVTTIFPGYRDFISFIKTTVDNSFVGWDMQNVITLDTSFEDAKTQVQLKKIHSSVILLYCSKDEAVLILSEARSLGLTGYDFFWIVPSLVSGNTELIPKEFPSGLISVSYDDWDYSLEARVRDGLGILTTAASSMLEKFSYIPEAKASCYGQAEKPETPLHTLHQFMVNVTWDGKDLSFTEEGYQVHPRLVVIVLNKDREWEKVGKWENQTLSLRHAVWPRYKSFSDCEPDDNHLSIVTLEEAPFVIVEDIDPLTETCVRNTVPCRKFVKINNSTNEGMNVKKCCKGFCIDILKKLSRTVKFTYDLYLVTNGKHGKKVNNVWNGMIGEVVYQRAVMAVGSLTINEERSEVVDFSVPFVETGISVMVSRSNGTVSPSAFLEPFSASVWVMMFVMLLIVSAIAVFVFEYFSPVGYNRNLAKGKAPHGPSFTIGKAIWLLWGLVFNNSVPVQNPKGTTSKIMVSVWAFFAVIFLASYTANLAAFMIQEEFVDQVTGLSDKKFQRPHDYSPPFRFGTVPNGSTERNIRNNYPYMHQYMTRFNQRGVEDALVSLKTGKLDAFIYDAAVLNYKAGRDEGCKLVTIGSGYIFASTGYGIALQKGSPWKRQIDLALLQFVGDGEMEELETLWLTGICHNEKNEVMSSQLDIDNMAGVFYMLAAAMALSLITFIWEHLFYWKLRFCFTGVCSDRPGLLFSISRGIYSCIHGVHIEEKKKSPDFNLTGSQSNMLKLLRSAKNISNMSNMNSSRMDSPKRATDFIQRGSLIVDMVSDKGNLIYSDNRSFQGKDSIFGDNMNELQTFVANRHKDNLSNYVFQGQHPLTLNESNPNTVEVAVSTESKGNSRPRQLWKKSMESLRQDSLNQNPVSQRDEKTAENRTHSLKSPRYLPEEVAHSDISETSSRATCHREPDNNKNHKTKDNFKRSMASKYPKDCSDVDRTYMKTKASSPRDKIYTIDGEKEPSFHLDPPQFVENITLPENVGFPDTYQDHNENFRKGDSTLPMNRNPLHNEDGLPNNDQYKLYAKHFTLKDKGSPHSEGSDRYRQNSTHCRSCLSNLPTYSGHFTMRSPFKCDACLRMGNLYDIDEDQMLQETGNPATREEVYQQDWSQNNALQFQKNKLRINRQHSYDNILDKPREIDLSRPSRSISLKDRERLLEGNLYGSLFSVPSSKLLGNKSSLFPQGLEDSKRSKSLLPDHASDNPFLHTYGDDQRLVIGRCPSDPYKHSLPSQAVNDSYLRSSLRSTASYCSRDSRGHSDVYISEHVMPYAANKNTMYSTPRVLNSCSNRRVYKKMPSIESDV
T2 sequence (Q00960 27-1482, other chains not shown, further chain): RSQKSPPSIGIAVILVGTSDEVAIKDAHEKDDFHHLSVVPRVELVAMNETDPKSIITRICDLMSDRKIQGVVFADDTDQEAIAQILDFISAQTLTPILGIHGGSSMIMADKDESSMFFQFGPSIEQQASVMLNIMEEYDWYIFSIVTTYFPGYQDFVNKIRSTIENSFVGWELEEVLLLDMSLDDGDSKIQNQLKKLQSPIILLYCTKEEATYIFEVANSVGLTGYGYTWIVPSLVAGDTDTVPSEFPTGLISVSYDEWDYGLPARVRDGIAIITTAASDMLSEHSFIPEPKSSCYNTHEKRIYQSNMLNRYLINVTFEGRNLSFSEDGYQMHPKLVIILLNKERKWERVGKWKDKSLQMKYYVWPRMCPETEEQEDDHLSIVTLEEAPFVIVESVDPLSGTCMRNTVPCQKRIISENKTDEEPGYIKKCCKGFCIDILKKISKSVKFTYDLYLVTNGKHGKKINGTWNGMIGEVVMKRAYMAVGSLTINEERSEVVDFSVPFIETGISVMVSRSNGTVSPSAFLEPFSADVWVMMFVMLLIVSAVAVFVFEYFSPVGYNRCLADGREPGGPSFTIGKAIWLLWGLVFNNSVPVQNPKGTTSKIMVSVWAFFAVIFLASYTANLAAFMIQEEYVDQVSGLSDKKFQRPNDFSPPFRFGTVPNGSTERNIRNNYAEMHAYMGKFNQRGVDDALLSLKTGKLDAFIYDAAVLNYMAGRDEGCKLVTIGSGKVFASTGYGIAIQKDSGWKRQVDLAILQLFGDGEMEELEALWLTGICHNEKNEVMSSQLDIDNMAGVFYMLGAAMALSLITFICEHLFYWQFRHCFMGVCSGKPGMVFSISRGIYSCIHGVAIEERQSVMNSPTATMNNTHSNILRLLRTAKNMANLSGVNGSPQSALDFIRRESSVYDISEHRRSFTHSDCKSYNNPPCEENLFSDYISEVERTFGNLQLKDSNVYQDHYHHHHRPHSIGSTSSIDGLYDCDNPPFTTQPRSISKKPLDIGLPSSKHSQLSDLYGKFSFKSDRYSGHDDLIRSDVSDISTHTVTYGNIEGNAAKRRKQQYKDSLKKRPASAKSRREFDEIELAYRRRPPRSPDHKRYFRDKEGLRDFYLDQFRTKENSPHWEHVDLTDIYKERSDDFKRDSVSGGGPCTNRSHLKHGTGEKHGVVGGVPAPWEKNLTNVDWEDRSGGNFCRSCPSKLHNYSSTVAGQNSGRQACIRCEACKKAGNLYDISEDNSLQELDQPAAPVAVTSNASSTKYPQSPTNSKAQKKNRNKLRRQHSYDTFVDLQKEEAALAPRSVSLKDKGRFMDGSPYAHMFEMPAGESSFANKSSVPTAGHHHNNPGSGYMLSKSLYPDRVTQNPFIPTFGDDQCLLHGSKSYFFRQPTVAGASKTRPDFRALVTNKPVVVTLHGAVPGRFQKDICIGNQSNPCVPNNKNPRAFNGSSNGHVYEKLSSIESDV

O=C(O)c1cc(O)c2ccc(Cl)cc2n1 [7-Cl KYNA, 7-chlorokynurenic acid]
IC50 ([1]; in the presence of B6B21 (40 μg/ml), read-out: IC50, inhibition of [3H]TCP binding): 60 µM
IC50 [2]: 6 µM

N[C@H](CCCP(=O)(O)O)C(=O)O [D-AP5, D-(−)-2-amino-5-phosphonovaleric acid]
IC50 ([3]; read-out: IC50, inhibition of [3H]TCP binding, in the presence of 50 μM glutamate): > 100 µM
IC50 [2]: 1.4 µM

N[C@@H](CCC(=O)O)C(=O)O [glutamate]
concentration giving maximal stimulation of specific [3H]TCP binding [3]: > 10 µM
specific [3H]TCP binding ([3]; maximally stimulating concentration, non-equilibrium 1 h, 25° C., control 63): 132 fmol/mg of protein

NCC(=O)O [glycine]
ability to abolish the inhibitory effect of D-AP5 on [3H]TCP binding ([1]; 50 μM glycine or 40 μg/ml B6B21): Neither glycine nor B6B21 could abolish
specific [3H]TCP binding ([1]; added to maximally stimulating glutamate): 310 fmol/mg of protein
potentiation of the glutamate effect on [3H]TCP binding ([1]; co-addition at concentrations giving maximal effects): potentiated the glutamate effect additively
specific [3H]TCP binding ([1]; in the absence of added glutamate, glycine 50 μM, B6B21 25 μM): 155 fmol/mg of protein
Bmax of [3H]glycine binding [4]: 12.9 pmol/mg of protein

threonine-proline-proline-threonine [NT-13]
[3H]MK-801 binding, % of control (NMDA receptor complex): 130%
learning in the trace eyeblink paradigm (learning [5]): statistically significant increase in learning
learning in the Morris Water Maze (learning [6]): statistically significant increase in learning
